In one data set the target is T1, h5-HT4b (Homo sapiens, UniProt Q13639).
T1 construct: expressed in transfected cells; host or cells: HEK 293 (clone 9), membrane preparation
The data set is described as follows: 5HT4 antagonism: [3H]GR113808 binding to membranes of h5-HT4b-HEK 293 clone 9 cells. The conditions noted are these: [3H]GR113808 0.1 nM, h5-HT4b-HEK 293 membranes, 30 min at 25° C. Here is the method: h5-HT4b-HEK 293 clone 9 cells were cultured in 150 mm Petri dishes and washed twice with cold PBS. The cells were then scraped from the plates and suspended in 50 mM Tris-HCl buffer, pH 7.4 and harvested by centrifugation at 23,500 rpm for 10 minutes. The pellet was resuspended in 5 mM Tris-HCl, pH 7.4 and homogenized with an Ultra Turrax homogenizer. The membranes were collected by centrifugation at 30,000 rpm for 20 min, resuspended in 50 mM Tris-HCl pH 7.4 and stored at −80° C. For the experiment, assay mixtures (0.5 ml) contained 50 μl of the tritiated ligand (5-HT4 antagonist [^3H]GR113808 0.1 nM) and 0.4 ml membrane preparation (15 μg protein/ml). 50 μl of 10% DMSO was added for total binding. 50 μl of 1 μM of (+)-trans-(1-butyl-3-hydroxy4-piperidinyl)methyl 8-amino-7-chloro-2,3-dihydro-1,4-benzodioxin-5-carboxylate (a proprietary 5HT4 agonist of Janssen Pharmaceutica) was added for determination of non-specific binding.
The [^3H]GR113808 assay buffer was 50 mM HEPES-NaOH, pH 7.4. The mixtures were incubated for 30 min at 25° C. The incubation was terminated by filtration over a Unifilter 96 GF/B presoaked in 0.1% polyethylenimine, followed by six washing steps with 50 mM HEPES-NaOH, pH 7.4.

Data set [1] is described as follows: Metabolic stability in liver microsomes with NADPH-generating system, LC-MS analysis. The class given is in vitro ADME. Particulars: compound 5 μM, active microsomes 1 mg/ml. Here is the method:
Sub-cellular tissue preparations were made according to Gorrod et al. (Xenobiotica 5: 453-462, 1975) by centrifugal separation after mechanical homogenization of tissue. Liver tissue was rinsed in ice-cold 0.1 M Tris-HCl (pH 7.4) buffer to wash excess blood. Tissue was then blotted dry, weighed and chopped coarsely using surgical scissors. The tissue pieces were homogenized in 3 volumes of ice-cold 0.1 M phosphate buffer (pH 7.4).
Tissue homogenates were centrifuged at 9000×g for 20 minutes at 4° C. The resulting supernatant was stored at −80° C. and is designated ‘S9’.
The S9 fraction can be further centrifuged at 100.000×g for 60 minutes (4° C.). The resulting supernatant was carefully aspirated, aliquoted and designated ‘cytosol’. The pellet was re-suspended in 0.1 M phosphate buffer (pH 7.4) in a final volume of 1 ml per 0.5 g original tissue weight and designated ‘microsomes’.
All sub-cellular fractions were aliquoted, immediately frozen in liquid nitrogen and stored at −80° C. until use.
For the samples to be tested, the incubation mixture contained PBS (0.1M), compound (5 μM), microsomes (1 mg/ml) and a NADPH-generating system (0.8 mM glucose-6-phosphate, 0.8 mM magnesium chloride and 0.8 Units of glucose-6-phosphate dehydrogenase). Control samples contained the same material but the microsomes were replaced by heat inactivated (10 minutes at 95 degrees Celsius) microsomes. Recovery of the compounds in the control samples was always 100%.
The mixtures were preincubated for 5 minutes at 37 degrees Celsius. The reaction was started at time point zero (t=0) by addition of 0.8 mM NADP and the samples were incubated for 60 minutes (P60). The reaction was terminated by the addition of 2 volumes of DMSO. Then the samples were centrifuged for 10 minutes at 900×g and the supernatants were stored at room temperature for no longer as 24 hours before analysis. All incubations were performed in duplo. Analysis of the supernatants was performed with LC-MS analysis. Elution of the samples was performed on a Xterra MS C18 (50×4.6 mm, 5 μm, Waters, US). An Alliance 2790 (Supplier: Waters, US) HPLC system was used. Elution was with buffer A (25 mM ammoniumacetate (pH 5.2) in H2O/acetonitrile (95/5)), solvent B being acetonitrile and solvent C methanol at a flow rate of 2.4 ml/min. The gradient employed was increasing the organic phase concentration from 0% over 50% B and 50% C in 5 min up to 100% B in 1 minute in a linear fashion and organic phase concentration was kept stationary for an additional 1.5 minutes. Total injection volume of the samples was 25 μl.
A Quatro triple quadrupole mass spectrometer fitted with and ESP source was used as detector. The source and the desolvation temperature were set at 120 and 350° C. respectively and nitrogen was used as nebuliser and drying gas. Data were acquired in positive scan mode (single ion reaction). Cone voltage was set at 10 V and the dwell time was 1 second.
Metabolic stability was expressed as % metabolism of the compound after 15 or 60 minutes (equation given as example) of incubation in the presence of active microsomes (E(act))
For orientation: Liver microsomes are a subcellular fraction often used to study metabolism.

Each structure is given as a SMILES string. Where a name gives a salt, the structure may show the parent alone.

T1 sequence (Q13639 whole entry): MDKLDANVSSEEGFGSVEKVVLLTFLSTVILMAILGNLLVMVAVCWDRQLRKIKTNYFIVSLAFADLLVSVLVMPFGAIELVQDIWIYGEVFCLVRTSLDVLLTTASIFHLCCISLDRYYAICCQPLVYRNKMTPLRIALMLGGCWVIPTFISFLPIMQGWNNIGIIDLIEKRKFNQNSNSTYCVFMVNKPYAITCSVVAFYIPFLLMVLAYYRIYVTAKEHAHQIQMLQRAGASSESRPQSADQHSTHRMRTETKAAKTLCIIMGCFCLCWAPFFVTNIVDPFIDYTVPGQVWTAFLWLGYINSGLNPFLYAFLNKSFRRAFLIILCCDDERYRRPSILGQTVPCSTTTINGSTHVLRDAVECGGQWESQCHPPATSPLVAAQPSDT

As a reminder, the IC50 is the point on the concentration scale where inhibition reaches its midpoint. A word on the melting point: it is the temperature, or range, at which the solid turns liquid. In turn, `CCCCN1CC[C@@H](CNC(=O)c2cc(Cl)c(Cl)c3c2OCCCO3)[C@H](O)C1` [compound 16] returned a melting point of 115 °C. Besides, at h5-HT4b, the IC50 is 1.23 nM.
The corresponding values for `CCCCN1CC[C@@H](CNC(=O)c2cc(Cl)c(OC)c3c2OCCO3)[C@H](O)C1` [compound 7] are 127 °C and 1.74 nM.
Turning to `CCCCN1CC[C@@H](CNC(=O)c2cc(Cl)c(Br)c3c2OCCCO3)[C@H](O)C1` [Co. No. 22], the “% metabolised compound” value in data set [1] (60 minutes incubation) is recorded as 51 (60″) %.
In the case of `CCOc1ccc(C(=O)NC[C@@H]2CCN(CCCC#N)C[C@H]2O)c2c1OCCCO2` [compound 145], the melting point is 131 °C. At h5-HT4b, the IC50 was 8.71 nM.
Take `CCCCN1CC[C@@H](CNC(=O)c2ccc(C)c3c2OCCCO3)[C@H](O)C1` [compound 1]: the melting point was found to be 127 °C. At h5-HT4b, this compound showed an IC50 of 1.32 nM.
For the compound `CCCCN1CC[C@@H](CNC(=O)c2cc(Cl)cc3c2OCCCO3)[C@H](O)C1` [WO-00/37461 Co. No. 119, reference compound], the “% metabolised compound” value in data set [1] (60 minutes incubation) is listed as 68 (60″) %.
`Cc1ccc(C(=O)NC[C@@H]2CCN(CCCCNS(C)(=O)=O)C[C@H]2O)c2c1OCCCO2` [compound 107] yielded a melting point of 124 °C. This compound also showed an IC50 at h5-HT4b of 2.45 nM.
Take `COc1ccc(C(=O)NC[C@@H]2CCNC[C@H]2O)c2c1OCCO2` [compound 117]: the melting point is 160 °C. Besides, the IC50 at h5-HT4b is 107 nM.
For `COCCCN1CC[C@@H](CNC(=O)c2ccc(C)c3c2OCCCO3)[C@H](O)C1` [compound 2], in that order: 109 °C and 2.75 nM.
As for `O=C(NC[C@@H]1CCN(CCC2OCCO2)C[C@H]1O)c1cc(Cl)cc2c1OCCCO2` [WO-00/37461 Co. No. 143, reference compound], the “% metabolised compound” value in data set [1] (15 minutes incubation) was 26.5 (15″) %.
For `COc1ccc(C(=O)NC[C@@H]2CCN(CCCC(N)=O)C[C@H]2OC)c2c1OCCO2` [compound 140], the melting point stood at 180 °C. The same compound gave an IC50 at h5-HT4b of 33.9 nM.
As to `O=C(NC[C@@H]1CCN(CCC2OCCO2)C[C@H]1O)c1cc(Cl)c(Cl)c2c1OCCCO2` [Co. No. 88], the “% metabolised compound” value in data set [1] (15 minutes incubation) was 10 (15″) %.
Same read-out and setting: the same measure for `O=C(NC[C@@H]1CCN(CCCO)C[C@H]1O)c1cc(Cl)cc2c1OCCCO2` [WO-00/37461 Co. No. 144, reference compound]: 5 (15″) %; for `O=C(NC[C@@H]1CCN(CCCO)C[C@H]1O)c1cc(Cl)c(Br)c2c1OCCCO2` [Co. No. 24]: 4 (15″) %.
As for `CO[C@@H]1CN(CCC2OCCO2)CC[C@H]1CNC(=O)c1cc(Cl)c(Br)c2c1OCCCO2` [compound 46], the IC50 on h5-HT4b was 6.03 nM.
Regarding `COc1ccc(C(=O)NC[C@@H]2CCN(CCCS(C)(=O)=O)C[C@H]2O)c2c1OCCCO2` [compound 126], the IC50 at h5-HT4b was 7.94 nM.
Still for that read-out and setting: the same measure for `COc1c(Cl)cc(C(=O)NC[C@@H]2CCN(CC3OCCO3)C[C@H]2OC)c2c1OCCCO2` [compound 66]: 132 nM.
In turn, `O=C(NC[C@@H]1CCNC[C@H]1O)c1cc(Cl)c(Cl)c2c1OCCCO2` [compound 20] showed an IC50 on h5-HT4b of 3.63 nM. Compared with the last compound, the IC50 is about 36-fold lower.
On the same count and under the same terms, to `CNCCCCN1CC[C@@H](CNC(=O)c2cc(Cl)c(Br)c3c2OCCCO3)[C@H](OC)C1` [compound 65] belongs 4.47 nM; to `COc1ccc(C(=O)NC[C@@H]2CCN(CC3CCCO3)C[C@H]2O)c2c1OCCCO2` (stereo partly drawn) [compound 103], 8.71 nM; to `COc1ccc(C(=O)NC[C@@H]2CCN(CCC3OCCO3)C[C@H]2O)c2c1OCCCO2` [compound 101], 2.45 nM.
Still for that read-out and setting: the same measure for `CNCCCN1CC[C@@H](CNC(=O)c2cc(Cl)c(Br)c3c2OCCCO3)[C@H](OC)C1` [compound 63]: 9.77 nM.
For the compound `Cc1ccc(C(=O)NC[C@@H]2CCN(CCCC(N)=O)C[C@H]2O)c2c1OCCCO2` [compound 109], the melting point turned out to be 160 °C. The compound further gave an IC50 at h5-HT4b of 1.17 nM.
The compound `COc1c(Cl)cc(C(=O)NC[C@@H]2CCN(CCCO)C[C@H]2O)c2c1OCCCO2` [compound 13] gave an IC50 at h5-HT4b of 5.37 nM. In other words, the single-digit nanomolar range.
Still for that read-out and setting: the same measure for `COc1c(Cl)cc(C(=O)NC[C@@H]2CCN(CC3CCCO3)C[C@H]2O)c2c1OCCO2` (stereo partly drawn) [compound 32]: 8.71 nM; for `CCCCN1CC[C@@H](CNC(=O)c2ccc(OC)c3c2OCCCO3)[C@H](O)C1` [compound 100]: 0.331 nM.
Same read-out and setting: to `N#CCCCN1CC[C@@H](CNC(=O)c2cc(Cl)c(Cl)c3c2OCCCO3)[C@H](O)C1` [compound 89] belongs 2.09 nM; to `CCN1CC[C@@H](CNC(=O)c2ccc(OC)c3c2OCCCO3)[C@H](OC)C1` [compound 120], 28.2 nM.
The compound `CNCCCCN1CC[C@@H](CNC(=O)c2ccc(C)c3c2OCCCO3)[C@H](O)C1` (as salt: salt) [compound 4] returned a melting point of 120 °C.
For `Cc1ccc(C(=O)NC[C@@H]2CCN(CCCC#N)C[C@H]2O)c2c1OCCCO2` [compound 94], the 50% inhibitory concentration (IC50) at h5-HT4b was 1.86 nM.
For `CO[C@@H]1CN(CCCC#N)CC[C@H]1CNC(=O)c1cc(Cl)c(Cl)c2c1OCCCO2` [compound 56], the IC50 on h5-HT4b is 3.89 nM.
The same measure, in the same setting: the same measure for `COc1c(Cl)cc(C(=O)NC[C@@H]2CCN(CCOCCO)C[C@H]2O)c2c1OCCO2` [compound 15]: 9.55 nM; for `Cc1ccc(C(=O)NC[C@@H]2CCN(CCCO)C[C@H]2O)c2c1OCCCO2` [compound 3]: 1.7 nM.
Still for that read-out and setting: the same measure for `COc1c(Cl)cc(C(=O)NC[C@@H]2CCN(CCC3OCCO3)C[C@H]2OC)c2c1OCCCO2` [compound 72]: 21.4 nM; for `O=C(NC[C@@H]1CCN(CCCO)C[C@H]1O)c1cc(Cl)c(Cl)c2c1OCCCO2` [compound 19]: 2.69 nM.
Same read-out and setting: to `CNCCN1CC[C@@H](CNC(=O)c2cc(Cl)c(OC)c3c2OCCO3)[C@H](OC)C1` [compound 92] belongs 490 nM.

Values taken from US7635706B2, “5HT4-antagonistic 4-(aminomethyl)-piperidine benzamides” (Janssen Pharmaceutica NV, priority 2003, dated 2009).
